Key:
[1] = Compound was evaluated for its ability to displace [3H]-L-364,718 from Cholecystokinin type A receptor from rat pancreas
[2] = Compound was evaluated for its ability to displace [3H]L-364718 from Cholecystokinin type A receptor from rat pancreas at dose of 0.03 umol/kg

CCC(C)(C)C(=O)CN1C(=O)C(NC(=O)Nc2cccc(C)c2)N=C(c2ccccc2)c2ccccc21 (stereo not drawn) [1-[1-(3,3-Dimethyl-2-oxo-pentyl)-2-oxo-5-phenyl-2,3-dihydro-1H-benzo[e][1,4]diazepin-3-yl]-3-m-tolyl-urea]
IC50 [1]: 720 nM

Cc1cccc(NC(=O)NC2N=C(c3ccccc3)c3ccccc3N(CC(=O)CC3CCCCC3)C2=O)c1 (stereo not drawn) [1-[1-(3-Cyclohexyl-2-oxo-propyl)-2-oxo-5-phenyl-2,3-dihydro-1H-benzo[e][1,4]diazepin-3-yl]-3-m-tolyl-urea]
IC50 [1]: 480 nM

Cc1cccc(NC(=O)NC2N=C(c3ccccc3)c3ccccc3N(CC(=O)C(C)C)C2=O)c1 (stereo not drawn) [1-[1-(3-Methyl-2-oxo-butyl)-2-oxo-5-phenyl-2,3-dihydro-1H-benzo[e][1,4]diazepin-3-yl]-3-m-tolyl-urea]
IC50 [1]: 1200 nM

Cc1cccc(NC(=O)N[C@@H]2N=C(c3ccccc3)c3ccccc3N(CC(=O)C3CCCC3)C2=O)c1 [1-[(R)-1-(2-Cyclopentyl-2-oxo-ethyl)-2-oxo-5-phenyl-2,3-dihydro-1H-benzo[e][1,4]diazepin-3-yl]-3-m-tolyl-urea]
IC50 [1]: 440 nM

Cc1cccc(NC(=O)N[C@@H]2N=C(c3ccccc3)c3ccccc3N(CC(=O)C(C)(C)C)C2=O)c1 [1-[(R)-1-(3,3-Dimethyl-2-oxo-butyl)-2-oxo-5-phenyl-2,3-dihydro-1H-benzo[e][1,4]diazepin-3-yl]-3-m-tolyl-urea]
IC50 [2]: 111 nM

Cc1cccc(NC(=O)N[C@H]2N=C(c3ccccc3)c3ccccc3N(CC(=O)C3CCCC3)C2=O)c1 [1-[(S)-1-(2-Cyclopentyl-2-oxo-ethyl)-2-oxo-5-phenyl-2,3-dihydro-1H-benzo[e][1,4]diazepin-3-yl]-3-m-tolyl-urea]
IC50 [1]: 2500 nM

Cc1cccc(NC(=O)NC2N=C(c3ccccc3)c3ccccc3N(CC(=O)C3(C)CCCCC3)C2=O)c1 (stereo not drawn) [1-{1-[2-(1-Methyl-cyclohexyl)-2-oxo-ethyl]-2-oxo-5-phenyl-2,3-dihydro-1H-benzo[e][1,4]diazepin-3-yl}-3-m-tolyl-urea]
IC50 [1]: > 10000 nM

Cc1cccc(NC(=O)NC2N=C(c3ccccc3)c3ccccc3N(CC(=O)C3(C)CCCC3)C2=O)c1 (stereo not drawn) [1-{1-[2-(1-Methyl-cyclopentyl)-2-oxo-ethyl]-2-oxo-5-phenyl-2,3-dihydro-1H-benzo[e][1,4]diazepin-3-yl}-3-m-tolyl-urea]
IC50 [1]: 293 nM

Source: BindingDB's records for doi:10.1016/0960-894X(95)00556-9 (1996)
